Measured values taken from US20230165278A1, “NUTRITIONAL SUPPLEMENTS COMPRISING DIETARY METAL COMPLEXES IN A MATRIX OF CELLULOSIC MATERIALS” (North Carolina State University, priority 2020, published 2023).
Values belong to the molecule of their own block, whether it stands above or below them.

Assays:
[1] = cited from earlier work; for Solubility (in words): background statement
[2] = Solubility in water; assay type: physicochemical; conditions: description of the patent's own materials
[3] = Swine trial (16 barrows, 14 days): zinc in ileal, cecal and fecal samples and zinc digestibility; assay type: in vivo; conditions: pigs
Description: A representative animal trial used a group of 16 barrows (castrated male pigs) including of 8 pairs of littermates. […] The littermate pairs were divided in half and randomly assigned to either the control diet or the test diet containing a composition of the presently disclosed subject matter. Each diet was formulated using a basal diet primarily of corn and soybean meal containing 50 ppm Zn from an added vitamin premix. The control diet contained an additional 50 ppm Zn from Basic Zinc Chloride (Zn5Cl2(OH)8.H2O) and the test diet contained an additional 50 ppm Zn from a composition of the presently disclosed subject matter for a total of 100 ppm Zn for each diet to meet the National Research Council recommendation for zinc supplementation of pigs of this size. The composition of the presently disclosed subject matter was prepared as described herein above.
Pigs were fed twice daily at 0800 and 1700 for the entirety of the trial. Daily feed intake for maintenance was determined for each pig at 4% of initial body weight at the beginning of the trial. Each pig was housed in a separate metabolism crate allowing for the quantitative collection of feces and urine. The trial lasted for a total of 14 days; the first 10 days allowed for the pigs to adjust to their new environments and diets. Days 11-13 for were used for twice-daily feces and urine collection. On day 14 all pigs were weighed and humanely euthanized prior to dissections to obtain ileal and cecal content samples. Feces samples and urine samples were pooled daily and stored at −20 C until ready for analysis. Fecal, ileal, and cecal samples were dried at 64 C in a drying oven until no change in mass was observed which took between 48-96 hours for most samples. After being dried completely, samples were sent to Missouri Field Laboratories for analysis of Zn, Titanium dioxide which was used as a feed marker, and proximate nutrient analysis. Pigs gained an average of 7.34 kilograms per pig during the 14 day trial.
The control diet, containing all supplemental zinc from basic zinc chloride, contained 134 ppm zinc. […] This may be indicative of the composition of the presently disclosed subject matter having higher levels of zinc than used in formulation of the diets.
Using the concentration of zinc found in the feed and ileal, cecal and fecal samples, zinc digestibility by the following equation: 100−[100*(zinc in feed/zinc in feces)]. Since the amounts of zinc present in the diets were over the zinc requirement of pigs of this size and age, the extra zinc in the diets employing a composition of the presently disclosed subject matter (referred to as “Experimental” in Table 2) may have affected the zinc digestibility results.

[4] = 100-[100*(zinc in feed/zinc in sample)]

Molecule: [O]=[Zn] [Zinc oxide]
Solubility (in words) [1]: relatively insoluble except in acid

Molecule: [Cl-].[Cl-].[Zn+2] [ZnCl2]
Solubility (amount that dissolves in 1 L of water) ([1]; in 1 L of water): 4 kg

Molecule: O=C([O-])[C@H](O)[C@@H](O)[C@H](O)[C@H](O)CO.O=C([O-])[C@H](O)[C@@H](O)[C@H](O)[C@H](O)CO.[Zn+2] [zinc gluconate, Zn(O2C(CHOH)4CH2OH)2]
Solubility (in words) [1]: highly soluble

Solubility in water / aqueous solution (in words) [2]: highly insoluble in water
Percent more zinc in ileal contents than in cecal contents [3]: 2.2%
Concentration of Zinc found in contents of the cecum ([3]; dried cecal contents, day 14, diet zinc found 134 ppm (control) / 152 ppm (experimental)): 399 ppm
Concentration of Zinc found in feces ([3]; dried feces collected days 11-13, diet zinc found 134 ppm (control) / 152 ppm (experimental)): 678 ppm
Concentration of Zinc found in contents of the ileum ([3]; dried ileal contents, day 14, diet zinc found 134 ppm (control) / 152 ppm (experimental)): 408 ppm
Percent Digestibility of Zinc in Feed, Fecal ([3]; 100-[100*(zinc in feed/zinc in feces)]): 80.2%
Percent Digestibility of Zinc in Feed, Cecal [3, 4]: 66.1%
Percent Digestibility of Zinc in Feed, Ileal [3, 4]: 62.6%
Share of total zinc excreted in feces ([3]; fecal zinc vs total of ileal, cecal and fecal zinc): 45.7%
Share of total zinc retained in ilium+cecum ([3]; ileal+cecal zinc vs total of ileal, cecal and fecal zinc): 54.3%
Molecule: Zn5Cl2(OH)8.H2O [Control]
